Measured values published in US7037896B1, “Peptide (VIRIP) which inhibits a circulating virus in humans and the use thereof” (priority 1999, dated 2006).

Tests used:
[1] = test system: HIV-1; conditions: three days after infection
Method: FIG. 2: Influence of synthetic VIRIP on the infection of CEMx174-SEAP indicator cells (left) and replication in human PBMCs (right). The cells were infected and cultured in the presence of the stated amounts of VIRIP. To determine the viral entry, the activity of the secreted alkaline phosphatase was determined in the culture supernatant of the CEMx174-SEAP cells three days after the infection.

[2] = test system: HIV-1 NL43; experiment: Replication of HIV-1 in human PBMCs (reverse transcriptase test in culture supernatant); type: cell-based
Method: FIG. 1: Purification of VIRIP. The purification steps are described in the text. (b) Inhibition of the replication of HIV-1 NL43 in human blood lymphocytes by fraction 1–20. The cells were stimulated with PHA for 2 days, infected with virus stocks containing 10 ng of p24, and the reverse transcriptase activity determined in the culture supernatant 9 days after the infection. The result of the infection experiments is shown.
The isolation of VIRIP was effected on the basis of its inhibitory action on the replication of HIV-1 in an assay which measures the replication of HIV-1 in human peripheral blood lymphocytes (PBMCs). Thus, aliquots of each of the individual chromatographic fractions described under Example 1 were freeze-dried and then subjected to the biological assay in amounts of from 10 ml up to 1 l of hemofiltrate equivalent. The respective fractions which gave a positive signal were subjected to further purification.
Human peripheral blood lymphocytes (PBMCs) were obtained from whole blood using density gradient centrifugation in Ficoll. The cells were prestimulated for two days (RPMI medium, 20% FKS, 100 U/ml IL-2, 5 μg/ml phytohemagglutinin [PHA]). Then, the PBMCs were sedimented by centrifugation at 1200 rpm for 5 min, taken up in PHA-free RPMI medium (20% FKS, 100 U/ml IL-2) and seeded in 96-well flat-bottomed plates in a volume of 80 μl in concentrations of about 150,000 cells per well.
On the following day, aliquots of the individual chromatographic steps described under Example 1 were supplied in amounts of from 10 ml up to 1 l of hemofiltrate equivalent. Thus, the freeze-dried chromatographic fractions were taken up in water and pipetted to the PBMCs in various concentrations in a total volume of 10 μl. After 2 hours of incubation at 37° C., the cells were infected by the addition of 10 μl of HIV-1 virus stock containing from 0.1 to 10 ng of p24 antigen. Subsequently, 50 μl of the culture medium was replaced every 2 days by fresh medium which additionally contained the corresponding peptide fractions. The production of HIV particles at different times (after 9, 12 and 18 days) from the infection of the cells was quantified in a reverse transcriptase (RT) test. The RT test measures the activity of reverse transcriptase in a cell-free culture supernatant, which is thus a measure of the production of viral particles and viral replication in the PBMC cultures. Alternatively, the viral production was determined in p24 antigen ELISA.

[3] = test system: X4-tropic HIV-1 NL4-3 V3 variants; experiment: Infection of P4R5 indicator cells with NL4-3 V3 recombinants, X4-tropic variants; type: cell-based
From the text: (§1) FIG. 3: The V3 loop of the X4-tropic NL43 clone was exchanged for the corresponding sequences of the HIV-1 isolates shown. Thus, the recombinant viruses are distinguished exclusively in the V3 loop. In the right panel, the observed inhibitors effect (%), the overall charge of the V3 region and the co-receptor-tropism are shown. At the bottom, the consensus sequence (SEQ ID NO: 6) is shown.
(§2) The V3 loop of the X4-tropic NL4-3 clone was replaced by the corresponding region of a number of primary HIV-1 isolates. […] To determine the inhibitory influence of VIRIP on these variants, P4R5 indicator cells were examined. P4R5 cells express both CCR5 and CXCR4 and contain the luciferase gene under the control of HIV-1 LTR. This cell line was infected with the various recombinant viruses (50 ng of p24) in the presence and absence of VIRIP, and the infection was quantified using the luciferase test.

[4] = test system: R5-tropic HIV-1 NL4-3 V3 variants; experiment: Infection of P4R5 indicator cells with NL4-3 V3 recombinants, R5-tropic variants; type: cell-based; conditions: 50 ng of p24, luciferase test
From the text: as §1, §2

[5] = test system: X4/R5-tropic HIV-1 NL4-3 V3 variants; experiment: Infection of P4R5 indicator cells with NL4-3 V3 recombinants, X4/R5-tropic variants; type: cell-based; conditions: 50 ng of p24, luciferase test
From the text: as §1, §2

[6] = test system: X4-tropic HIV-1 P59S isolate; experiment: Dose-dependent inhibition of infection of P4R5 indicator cells, P59S isolate; type: cell-based; conditions: 2 days after infection
Method: (§3) P4R5 indicator cells were infected in the presence of the shown concentrations of VIRIP, and the β-galactosidase activity was measured in the cell extract 2 days after the infection.
(§4) In order to quantify the inhibitory effect of the substance according to the invention more precisely, P4R5 indicator cells were infected with the X4-tropic HIV-1 P59S isolate and the R5-tropic 92TH isolate in the presence of different doses of VIRIP.

[7] = test system: R5-tropic 92TH isolate; experiment: Dose-dependent inhibition of infection of P4R5 indicator cells, 92TH isolate; type: cell-based, HIV-1
Method: as §3, §4

[8] = test system: X4-tropic HIV variants; experiment: Replication of HIV isolates in human PBMC (RT activity), X4-tropic variants; type: cell-based
Method: (§5) FIG. 5: VIRIP inhibits the replication of various HIV isolates with different cell- and co-receptor-tropisms in human PBMC. Prestimulated PBMC were treated with the various HIV-1 isolates (10 ng of p27 antigen) or a chimeric onco-lentivirus (Mu-HIV) in the presence of the VIRIP concentrations shown. Viral replication was determined by measuring the reverse transcriptase activity in the cell culture supernatant.
(§6) The inhibitory effects on R5-tropic forms were lesser. A chimeric onco-lentivirus (Mu-HIV) carrying the MLV envelope protein was not inhibited (FIG. 5, bottom).

[9] = test system: dual-tropic HIV variants; experiment: Replication of HIV isolates in human PBMC (RT activity), dual-tropic variants; type: cell-based
Method: as §5, §6

[10] = test system: R5-tropic forms; experiment: Replication of HIV isolates in human PBMC (RT activity), R5-tropic forms; type: cell-based; conditions: compared with X4-tropic and dual-tropic variants
Method: as §5, §6

[11] = test system: chimeric onco-lentivirus (Mu-HIV) carrying the MLV envelope protein; experiment: Replication of chimeric onco-lentivirus in human PBMC (RT activity); type: cell-based
Method: as §5, §6

[12] = test system: blood cells; experiment: Cytotoxic effect on the blood cells

## LEAIPMSIPPEVKFNKPFVF [VIRIP]
[1]
  inhibition of the HIV-1 infection of CEMx174-SEAP indicator cells: dose-dependent inhibition
[2]; listed as VIRIP from hemofiltrate
  inhibition of the replication of HIV-1 in PBMCs: effectively block
[2]; listed as VIRIP purified from hemofiltrate
  inhibition of the replication of HIV-1 in PBMCs: dose-dependent inhibition
[2]; listed as chemically synthesized VIRIP
  inhibition of the replication of HIV-1 in PBMCs: dose-dependent inhibition
[2]; listed as synthetically prepared VIRIP
  inhibition of the replication of HIV-1 in PBMCs: dose-dependent suppression
[2]; listed as synthetically prepared peptide
  inhibition of the replication of HIV-1 in PBMCs: effectively block
[3]
  efficiency of inhibition of X4-tropic variants having a strongly positively charged V3 loop as compared with R5-tropic or dual-tropic isolates: inhibited more efficiently
[3]; 50 ng of p24, luciferase test
  inhibition of X4-tropic variants: inhibited
[4]
  inhibition of R5-tropic variants: inhibited
[5]
  inhibition of X4/R5-tropic variants: inhibited
[6]
  concentration inhibiting the HIV-1 P59S isolate by 50%: 40 µg/mL
  concentration inhibiting the HIV-1 P59S isolate by 90%: 180 µg/mL
[7]
  concentrations required for inhibiting the 92TH isolate relative to P59S: about twofold higher concentrations
[8]; 100 μg/ml
  suppression of replication of X4-tropic HIV variants: at least partially
[8]; 1000 μg/ml
  suppression of replication of X4-tropic HIV variants: completely
[9]; 100 μg/ml
  suppression of replication of dual-tropic HIV variants: at least partially
[9]; 1000 μg/ml
  suppression of replication of dual-tropic HIV variants: completely
[10]
  inhibitory effects on R5-tropic forms: lesser
[11]
  inhibition of chimeric onco-lentivirus (Mu-HIV): not inhibited
[12]
  cytotoxic effect on the blood cells: does not exert any cytotoxic effect
